Entries after “also recorded” stand apart in the source; their conditions may differ. Where no end group is shown, it is not given here.
Columns and labels:
Th2 cells = assay: T cell in vitro culture (Th2 differentiation), Il5/Il13 qPCR; format: cell-based, mouse; details: Th2 cells cultured with or without NMU 1 μg/ml
Protocol: Quantitative real-time PCR. RNA was isolated using RNeasy Plus Mini Kit (Qiagen) and reverse transcribed to cDNA with iScript cDNA Synthesis Kit (Bio-Rad). Gene expression was analyzed by quantitative real-time PCR on a ViiA7 System (Thermo Fisher Scientific) using TaqMan Fast Advanced Master Mix (Thermo Fisher Scientific) with the following primer/probe sets: IL-5 (Mm00439646_m1), IL-13 (Mm00434204_m1), IL-17RB (Mm00444709_m1), Nmur1 (Mm04207994 m1), Nmur2 (Mm00600704_m1), and β-Actin (Applied Biosystems). Expression values were calculated relative to β-Actin detected in the same sample by duplex qPCR.
T cell in vitro culture. CD4^+ T cells were isolated as described previously^4 and sorted for naive T cells (CD4^+ CD62L^+ CD44^low) on a FACS Aria. Naive T cells were cultured in the presence of plate-bound anti-CD3 (1 μg/ml; Bio X Cell) and anti-CD28 (1 μg/ml; Bio X Cell) antibodies. […]
Quantitative real-time PCR. […] Gene expression was analyzed by quantitative real-time PCR on a ViiA7 System (Thermo Fisher Scientific) using TaqMan Fast Advanced Master Mix (Thermo Fisher Scientific) with the following primer/probe sets: Il5 (Mm00439646_m1), Il13 (Mm00434204_m1), Il17rb (Mm00444709_m1), Nmur1 (Mm04207994_m1), Nmur2 (Mm00600704_m1), Nmu (Mm00479868_m1) and Actb (Applied Biosystems). Expression values were calculated relative to Actb detected in the same sample by duplex qPCR. […]

lung-resident ILCs = assay: Droplet-based scRNA-seq of lung-resident ILCs after in vivo treatment; parameters: species or system mouse; details: PBS, NMU, IL-25, combination
From the text: Mice and in vivo ILC activation. C57Bl/6J mice were purchased from the Jackson Laboratory. Nmur1-LacZ reporter mice with a LacZ cassette knocked into the Nmur1 locus were rederived from Nmur1^tm1.1(KOMP)Vleg sperm obtained from the trans-NIH Knock-Out Mouse Project (KOMP) Repository. Mice were housed under specific-pathogen-free conditions. For experiments, mice were matched for sex and age, and most mice were 6-10 weeks old. Where indicated, mice were anesthetized with Isoflurane and treated intranasally with the indicated stimuli (500 ng IL-25, 500 ng IL-33, or 20 μg Neuromedin U) daily for three consecutive days. The total administered volume was 20 μl for all conditions. Mice were randomly assigned to treatment groups after matching for sex and age. […]
Fluorescence-activated cell sorting of innate lymphoid cells. […]
Analysis of droplet-based scRNA-Seq data: Initial QC. Gene counts were obtained by aligning reads to the mm10 genome using CellRanger software (10× Genomics), with the genome reannotated at the 3′ end of Nmur1 (see main text). […]
Analysis of droplet-based scRNA-Seq samples: Signature scores. Applicants calculated signature scores as the log of the geometric mean of the TPX values for the genes in the signature. […] Then the signature score for that cell is calculated as log(IIg(xg+1)^1/m) which is equivalent to the arithmetic mean of the log TPX values. […]

Substance: Neuromedin U (FRVDEEFQSPFASQSRGYFLFRPRN-NH2; listed as Homo sapiens) [NMU, neuropeptide ligand of Nmur1 (US Biological)]
- Il5 and Il13 expression in Th2 cells (Th2 cells): not observed; also recorded: similar; also recorded: did not affect; also recorded: does not alter
- transcriptional profiles of ILCs (tSNE localization) (lung-resident ILCs): largely localized with those from control mice; also recorded: transcriptionally similar to control ILCs

— US12161694B2, “Methods and compositions for regulating innate lymphoid cell inflammatory responses” (The Broad Institute, Inc., priority 2017, dated 2024)
